In BindingDB's records for PubMed 36812150 (China Pharmaceutical University, 2023):

The compounds below were run against Sucrase-isomaltase, intestinal (Rattus norvegicus, UniProt P23739) (assay: Binding affinity to sucrase in rat small intestinal brush border membrane vesicles assessed as inhibition constant using sucrose as substrate incubated for 30 mins by glucose-oxidase method).
Sucrase-isomaltase, intestinal, sequence (P23739 1-1013 limits assumed): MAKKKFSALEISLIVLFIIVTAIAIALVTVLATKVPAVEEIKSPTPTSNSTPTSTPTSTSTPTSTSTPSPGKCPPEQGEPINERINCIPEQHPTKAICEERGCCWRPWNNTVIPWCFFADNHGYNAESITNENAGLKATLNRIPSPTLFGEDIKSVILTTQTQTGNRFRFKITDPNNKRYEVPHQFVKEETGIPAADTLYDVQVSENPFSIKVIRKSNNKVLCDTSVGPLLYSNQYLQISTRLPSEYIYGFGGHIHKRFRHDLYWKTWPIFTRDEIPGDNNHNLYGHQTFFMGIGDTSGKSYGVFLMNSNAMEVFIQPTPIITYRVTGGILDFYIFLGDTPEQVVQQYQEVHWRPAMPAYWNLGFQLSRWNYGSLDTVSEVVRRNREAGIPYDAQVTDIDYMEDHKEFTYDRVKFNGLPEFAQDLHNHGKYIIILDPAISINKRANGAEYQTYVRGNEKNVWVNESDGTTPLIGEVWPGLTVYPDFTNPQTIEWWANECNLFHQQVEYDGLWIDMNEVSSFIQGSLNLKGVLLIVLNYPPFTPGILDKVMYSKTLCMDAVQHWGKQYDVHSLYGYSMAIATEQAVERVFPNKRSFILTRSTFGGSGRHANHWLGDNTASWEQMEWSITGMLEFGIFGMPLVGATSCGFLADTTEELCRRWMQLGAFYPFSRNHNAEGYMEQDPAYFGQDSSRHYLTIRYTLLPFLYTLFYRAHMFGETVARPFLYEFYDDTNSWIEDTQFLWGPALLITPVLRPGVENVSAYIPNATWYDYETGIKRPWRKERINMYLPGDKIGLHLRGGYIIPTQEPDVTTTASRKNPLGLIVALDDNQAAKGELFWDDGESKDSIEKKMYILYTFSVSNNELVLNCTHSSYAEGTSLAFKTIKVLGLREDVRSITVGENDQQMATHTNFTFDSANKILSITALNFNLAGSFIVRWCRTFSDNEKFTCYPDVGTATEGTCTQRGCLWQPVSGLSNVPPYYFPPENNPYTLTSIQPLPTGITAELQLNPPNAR
Sucrase-isomaltase, intestinal, sequence (P23739 1014-1841 limits assumed): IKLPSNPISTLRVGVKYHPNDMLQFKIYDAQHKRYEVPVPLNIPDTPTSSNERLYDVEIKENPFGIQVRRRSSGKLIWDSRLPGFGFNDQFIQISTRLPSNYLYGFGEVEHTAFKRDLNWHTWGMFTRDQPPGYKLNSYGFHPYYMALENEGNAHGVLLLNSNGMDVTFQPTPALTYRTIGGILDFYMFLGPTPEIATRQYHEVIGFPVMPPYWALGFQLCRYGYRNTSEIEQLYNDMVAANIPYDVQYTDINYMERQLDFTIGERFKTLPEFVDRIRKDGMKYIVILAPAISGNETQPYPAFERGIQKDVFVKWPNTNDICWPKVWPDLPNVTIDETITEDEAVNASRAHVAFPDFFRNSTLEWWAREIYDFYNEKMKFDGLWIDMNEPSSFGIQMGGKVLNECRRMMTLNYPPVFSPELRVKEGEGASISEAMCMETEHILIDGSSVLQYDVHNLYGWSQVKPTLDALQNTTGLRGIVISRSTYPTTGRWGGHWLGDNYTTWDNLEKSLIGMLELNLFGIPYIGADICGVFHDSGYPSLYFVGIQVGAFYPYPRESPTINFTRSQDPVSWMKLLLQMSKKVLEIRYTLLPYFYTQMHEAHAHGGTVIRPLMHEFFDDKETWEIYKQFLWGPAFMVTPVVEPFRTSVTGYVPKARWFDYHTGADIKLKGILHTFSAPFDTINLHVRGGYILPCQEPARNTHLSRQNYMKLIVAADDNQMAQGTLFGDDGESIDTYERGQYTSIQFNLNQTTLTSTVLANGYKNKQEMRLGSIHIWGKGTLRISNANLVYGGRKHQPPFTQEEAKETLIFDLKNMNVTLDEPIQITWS
`OC[C@@H]1[C@@H](O)[C@H](O)C[S@+]1C[C@@H](O)[C@H]1OC(c2ccccc2C(F)(F)F)OC[C@H]1O` (stereo not given in full) was tested, and the Ki was 190 nM. With `O=[N+]([O-])c1ccccc1C1OC[C@@H](O)[C@@H]([C@H](O)C[S@@+]2C[C@@H](O)[C@H](O)[C@H]2CO)O1` (stereo not given in full) the Ki was 160 nM. With `OC[C@@H]1[C@@H](O)[C@H](O)C[S@+]1C[C@@H](O)[C@H]1OC(c2ccccc2)OC[C@H]1O` (stereo not given in full) the Ki was 310 nM. `OC[C@@H]1[C@@H](O)[C@H](O)C[S@+]1C[C@@H](O)[C@H]1OC(c2ccccc2Cl)OC[C@H]1O` (stereo not given in full) was tested, and the Ki was 210 nM. `OC[C@@H]1[C@@H](O)[C@H](O)C[S@+]1C[C@@H](O)[C@H]1OC(c2ccccc2F)OC[C@H]1O` (stereo not given in full) gave a Ki of 240 nM.
